Experimental data: patent publication US10961229B2, “Selective NR2B antagonists” (Bristol-Myers Squibb Company, priority 2015, dated 2021)
Read-outs that look alike come from different tables or passages of the source.

Tests used:
[1] = biological target: T1, NR2B-subtype receptors (Mus musculus, UniProt P35438+Q01097); test: Ex vivo occupancy assay; assay type: in vivo; details: for receptor occupancy at 3 mg/kg: mouse, iv
T1 construct: brain-resident NR2B-subtype receptors; from tissue; host or cells: forebrain membrane homogenates of dosed CD-1 mice
Procedure: Ex vivo occupancy assay. […] 7-9 weeks old male CD-1 mice were dosed intravenously in a vehicle consisting of 10% dimethylacetamide, 40% PEG-400, 30% hydroxypropyl betacyclodextrin, and 30% water with experimental compounds and the forebrains were harvested 15 minutes post-dosing by decapitation. The brain samples were immediately snap-frozen and stored at −80° C. On the following day, the dosed brain samples were thawed on ice for 15-20 minutes followed by homogenization using Polytron for 10 seconds in cold homogenization buffer composed of 50 mM KH2PO4 (pH adjusted to 7.4 with KOH), 1 mM EDTA, 0.005% Triton X 100 and protease inhibitor cocktail (Sigma Aldrich). The crude homogenates were further homogenized using a Dounce homogenizer and the homogenized membrane aliquots from all animals were flash-frozen and stored at −80° C. until further use. The whole homogenization process was performed on ice.
For determining occupancy, the membrane homogenates were first thawed on ice and then needle-homogenized using a 25 gauge needle. The homogenized membrane (6.4 mg/ml) was added to a 96-well plate followed by addition of ^3H Ro 25-6981 (6 nM). The reaction mixture was incubated for 5 minutes on a shaker at 4° C. and then harvested onto GF/B filter plates (treated with 0.5% PEI for 1 hr at room temperature). The filter plates were dried at 50° C. for 20 mins, incubated with microscint 20 for 10 minutes and read on TopCount (Perkin Elmer). Each dose or compound group consisted of 4-5 animals. The control group of animals was dosed with vehicle alone. Membrane from each animal was added in triplicates to the assay plate. Non-specific binding was determined using 10 μM Ro 25-6981 added to the wells containing membrane homogenates from vehicle-dosed animals. Specific counts/minute was converted to % occupancy at each dose of a compound for each animal using the following equation:
(§1) [formula] […] Drug levels were determined by mass spectroscopy in the usual manner. Drug levels in the blood plasma were 1018 nM in at this dose, and drug levels in the homogonized brain tissue were 1342 nM.

[2] = biological target: T2, NR2B-subtype NMDA receptors (Rattus norvegicus, UniProt P35439+Q00960); test: Radioligand binding assay (3H Ro 25-6981 competition); details: rat forebrain membranes, 3H Ro 25-6981 (4 nM)
T2 construct: from tissue; host or cells: rat forebrain membrane homogenate (Sprague Dawley, Harlan)
Procedure: Radioligand binding assay. Binding experiments to determine binding to NR2B-subtype NMDA receptors were performed on forebrains of 8-10 weeks old male Sprague Dawley rats (Harlan, Netherlands) using ^3H Ro 25-6981 (Mutel V; Buchy D; Klingelschmidt A; Messer J; Bleuel Z; Kemp J A; Richards J G. Journal of Neurochemistry, 1998, 70(5):2147-2155. Rats were decapitated without anesthesia using a Guillotine (approved by animal ethics committee) and the harvested brains were snap-frozen and stored at −80° C. for 3-6 months for membrane preparation.
For membrane preparation, rat forebrains were thawed on ice for 20 minutes in homogenization buffer composed of 50 mM KH2PO4 (pH adjusted to 7.4 with KOH), 1 mM EDTA, 0.005% Triton X 100 and protease inhibitor cocktail (Sigma Aldrich). Thawed brains were homogenized using a Dounce homogenizer and centrifuged at 48000×g for 20 min. The pellet was resuspended in cold buffer and homogenized again using a Dounce homogenizer. Subsequently, the homogenate was aliquoted, snap-frozen and stored at −80° C. for not more than 3-4 months.
To perform the competition binding assay, thawed membrane homogenate was added to each well of a 96-well plate (20 μg/well). […] The filter plates were dried at 50° C. for 20 mins, incubated with microscint 20 for 10 minutes and finally, the counts were read on TopCount (Perkin Elmer).

[3] = Drug levels in blood plasma and homogenized brain tissue by mass spectroscopy; assay type: in vivo, mouse; details: intravenous; for concentration at 15 min: CD-1, mouse, 3 mg/Kg i.v. dose, ex vivo occupancy study, mice; for concentration at 21 min: 3 mg/Kg i.v., end of mouse forced swim test
Procedure: as §1
Mouse Forced swim test (mFST). Forced Swim Test (FST) is an animal model used to assess antidepressant compounds in preclinical studies. The FST was performed similar to the method of Porsolt et al. with modifications (Porsolt R D, Bertin A, Jalfre M. Behavioral despair in mice: a primary screening test for antidepressants. Arch Int Pharmacodyn Thér 1977; 229:327-36). In this paradigm, mice are forced to swim in an inescapable cylinder filled with water. Under these conditions, mice will initially try to escape and eventually develop immobility behavior; this behavior is interpreted as a passive stress-coping strategy or depression-like behavior. Swim tanks were positioned inside a box made of plastic. Each tank was separated from each other by opaque plastic sheets to the height of cylinders. Three mice were subjected to test at a time. Swim sessions were conducted for 6 min by placing mice in individual glass cylinders (46 cm height×20 cm diameter) containing water (20-cm deep, maintained at 24-25° C.). […] The mouse was judged to be immobile whenever it remained floating passively without struggling in the water and only making those movements necessary to keep its nose/head above the water and to keep it afloat. The duration of immobility was evaluated during the total 6 min of the test and expressed as duration (sec) of immobility. Each mouse was tested only once. At the end of each session, mice were dried with a dry cloth and returned to their home cage placed on a thermal blanket to prevent hypothermia. Water was replaced after each trial. All testing sessions were recorded with a video camera (Sony Handicam, Model: DCR-HC38E; PAL) and scoring was done using the Forced Swim Scan, Version 2.0 software (Clever Systems Inc., Reston, Va., USA; see Hayashi E, Shimamura M, Kuratani K, Kinoshita M, Hara H. Automated experimental system capturing three behavioral components during murine forced swim test. Life Sci. 2011 February 28; 88 (9-10): 411-7 and Yuan P, Tragon T, Xia M, Leclair C A, Skoumbourdis A P, Zheng W, Thomas C J, Huang R, Austin C P, Chen G, Guitart X. Phosphodiesterase 4 inhibitors enhance sexual pleasure-seeking activity in rodents. Pharmacol Biochem Behav. 2011; 98(3):349-55). For NCE testing: Test compound was administered in mice 15 min before swim session by i.v. route and immobility time was recorded for next 6 min. […] The NR2B receptor occupancy was determined as reported above and was determined to be 67%.

[4] = biological target: T3, hERG channels (Homo sapiens, UniProt Q12809); test: hERG electrophysiology assay (patch clamp); assay type: cell-based; details: HEK 293 cells stably expressing hERG channels, tail current
T3 construct: expressed in transfected cells
Procedure: hERG electrophysiology assay. The experimental compounds were assessed for hERG activity on HEK 293 cells stably expressing hERG channels using patch clamp technique. Coverslips plated with hERG expressing cells were placed in the experimental chamber and were perfused with a solution composed of (in mM): 140 NaCl, 4 KCl, 1.8 CaCl2, 1 MgCl2, 10 Glucose, 10 HEPES (pH 7.4, NaOH) at room temperature. Borosilicate patch pipettes had tip resistances of 2-4 Mohms when filled with an internal solution containing: 130 KCl, 1 MgCl2, 1 CaCl2, 10 EGTA, 10 HEPES, 5 ATP-K2 (pH 7.2, KOH). The cells were clamped at −80 mV in whole cell configuration using an Axopatch 200B (Axon instruments, Union City, Calif.) patch clamp amplifier controlled by pClamp (Axon instruments) software. […] First, tail currents were recorded in presence of extracellular solution alone (control) and subsequently, in extracellular solution containing increasing compound concentrations. […] The percentage inhibition at each concentration was calculated as reduction in peak tail current with respect to the peak tail current recorded in the presence of control solution. […]

[5] = tested on: mice; test: Mouse Forced swim test (mFST); assay type: in vivo; details: 3 mg/Kg i.v., 15 min before swim session, 6 min test
Procedure: Mouse Forced swim test (mFST). Forced Swim Test (FST) is an animal model used to assess antidepressant compounds in preclinical studies. The FST was performed similar to the method of Porsolt et al. with modifications (Porsolt R D, Bertin A, Jalfre M. Behavioral despair in mice: a primary screening test for antidepressants. Arch Int Pharmacodyn Thér 1977; 229:327-36). In this paradigm, mice are forced to swim in an inescapable cylinder filled with water. Under these conditions, mice will initially try to escape and eventually develop immobility behavior; this behavior is interpreted as a passive stress-coping strategy or depression-like behavior. […] The duration of immobility was evaluated during the total 6 min of the test and expressed as duration (sec) of immobility. […] All testing sessions were recorded with a video camera (Sony Handicam, Model: DCR-HC38E; PAL) and scoring was done using the Forced Swim Scan, Version 2.0 software (Clever Systems Inc., Reston, Va., USA; see Hayashi E, Shimamura M, Kuratani K, Kinoshita M, Hara H. Automated experimental system capturing three behavioral components during murine forced swim test. Life Sci. 2011 February 28; 88 (9-10): 411-7 and Yuan P, Tragon T, Xia M, Leclair C A, Skoumbourdis A P, Zheng W, Thomas C J, Huang R, Austin C P, Chen G, Guitart X. Phosphodiesterase 4 inhibitors enhance sexual pleasure-seeking activity in rodents. […]

T1 sequence (Q01097 27-1482, other chains not shown): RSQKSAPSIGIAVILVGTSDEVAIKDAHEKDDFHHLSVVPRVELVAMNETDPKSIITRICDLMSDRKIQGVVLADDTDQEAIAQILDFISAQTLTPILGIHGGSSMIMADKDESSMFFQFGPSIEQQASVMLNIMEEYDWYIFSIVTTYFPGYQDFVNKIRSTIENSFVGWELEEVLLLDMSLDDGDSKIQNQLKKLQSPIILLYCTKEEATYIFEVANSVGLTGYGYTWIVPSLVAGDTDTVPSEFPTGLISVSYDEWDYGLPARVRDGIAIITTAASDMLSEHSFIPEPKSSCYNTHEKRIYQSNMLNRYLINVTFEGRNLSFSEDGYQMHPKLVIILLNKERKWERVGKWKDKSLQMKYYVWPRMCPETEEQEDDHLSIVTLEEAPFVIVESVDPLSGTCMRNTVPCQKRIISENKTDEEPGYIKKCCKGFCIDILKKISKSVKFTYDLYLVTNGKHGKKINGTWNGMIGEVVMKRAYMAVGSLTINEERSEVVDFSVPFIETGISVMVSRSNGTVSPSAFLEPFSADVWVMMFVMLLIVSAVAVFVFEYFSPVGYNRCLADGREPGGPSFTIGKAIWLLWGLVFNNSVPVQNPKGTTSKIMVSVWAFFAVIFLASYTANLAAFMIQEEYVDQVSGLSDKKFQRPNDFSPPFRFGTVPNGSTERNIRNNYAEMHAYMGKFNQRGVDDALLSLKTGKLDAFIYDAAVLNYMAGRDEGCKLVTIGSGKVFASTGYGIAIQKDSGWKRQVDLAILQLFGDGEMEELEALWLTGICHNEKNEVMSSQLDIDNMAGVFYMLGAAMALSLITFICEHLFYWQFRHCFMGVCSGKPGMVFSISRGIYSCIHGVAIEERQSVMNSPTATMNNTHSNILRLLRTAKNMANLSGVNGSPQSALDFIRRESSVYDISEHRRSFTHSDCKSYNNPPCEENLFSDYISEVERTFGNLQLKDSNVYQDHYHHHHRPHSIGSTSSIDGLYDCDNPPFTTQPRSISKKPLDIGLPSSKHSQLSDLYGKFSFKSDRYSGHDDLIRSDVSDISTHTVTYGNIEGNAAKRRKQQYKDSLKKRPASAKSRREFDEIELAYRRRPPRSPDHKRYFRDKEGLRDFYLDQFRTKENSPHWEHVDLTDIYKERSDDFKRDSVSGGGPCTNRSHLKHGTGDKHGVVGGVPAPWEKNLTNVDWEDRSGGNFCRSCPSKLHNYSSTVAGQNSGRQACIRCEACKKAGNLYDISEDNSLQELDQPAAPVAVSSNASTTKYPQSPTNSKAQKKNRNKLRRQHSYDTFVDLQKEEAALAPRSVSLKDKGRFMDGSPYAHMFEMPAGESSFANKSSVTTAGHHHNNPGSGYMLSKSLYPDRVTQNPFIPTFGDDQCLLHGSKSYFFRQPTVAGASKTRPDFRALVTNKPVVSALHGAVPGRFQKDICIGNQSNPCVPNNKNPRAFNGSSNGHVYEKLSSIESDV
T3 sequence (Q12809 whole entry): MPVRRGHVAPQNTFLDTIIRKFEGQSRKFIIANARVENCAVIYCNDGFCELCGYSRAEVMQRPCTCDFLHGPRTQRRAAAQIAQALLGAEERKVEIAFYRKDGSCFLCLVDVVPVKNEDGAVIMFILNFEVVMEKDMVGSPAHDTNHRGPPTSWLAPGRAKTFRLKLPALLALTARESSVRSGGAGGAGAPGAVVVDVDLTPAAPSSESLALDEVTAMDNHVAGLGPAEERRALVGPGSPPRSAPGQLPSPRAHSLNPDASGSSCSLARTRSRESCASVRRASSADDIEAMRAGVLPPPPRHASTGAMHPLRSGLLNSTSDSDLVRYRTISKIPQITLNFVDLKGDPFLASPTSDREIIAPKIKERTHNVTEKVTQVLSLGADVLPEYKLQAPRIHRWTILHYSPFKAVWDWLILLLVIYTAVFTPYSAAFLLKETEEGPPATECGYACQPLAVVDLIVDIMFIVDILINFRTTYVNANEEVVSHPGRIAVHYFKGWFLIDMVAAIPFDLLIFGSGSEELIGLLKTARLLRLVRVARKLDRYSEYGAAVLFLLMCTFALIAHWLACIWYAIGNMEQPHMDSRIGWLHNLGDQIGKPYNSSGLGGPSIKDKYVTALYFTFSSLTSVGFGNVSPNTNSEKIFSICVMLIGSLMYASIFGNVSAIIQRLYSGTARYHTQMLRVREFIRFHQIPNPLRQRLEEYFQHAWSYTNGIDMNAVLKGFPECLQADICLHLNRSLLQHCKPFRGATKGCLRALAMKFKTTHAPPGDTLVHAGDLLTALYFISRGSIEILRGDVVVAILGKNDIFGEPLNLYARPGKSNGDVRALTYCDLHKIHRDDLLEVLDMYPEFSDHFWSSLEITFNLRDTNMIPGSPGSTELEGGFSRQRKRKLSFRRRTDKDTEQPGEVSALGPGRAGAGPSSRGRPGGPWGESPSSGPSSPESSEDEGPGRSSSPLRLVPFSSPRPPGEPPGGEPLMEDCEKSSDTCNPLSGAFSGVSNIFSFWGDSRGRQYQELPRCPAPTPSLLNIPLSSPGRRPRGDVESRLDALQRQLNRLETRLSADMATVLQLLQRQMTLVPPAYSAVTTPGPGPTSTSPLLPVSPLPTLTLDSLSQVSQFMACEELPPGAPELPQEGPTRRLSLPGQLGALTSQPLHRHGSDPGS
T2 sequence (Q00960 27-1482, other chains not shown): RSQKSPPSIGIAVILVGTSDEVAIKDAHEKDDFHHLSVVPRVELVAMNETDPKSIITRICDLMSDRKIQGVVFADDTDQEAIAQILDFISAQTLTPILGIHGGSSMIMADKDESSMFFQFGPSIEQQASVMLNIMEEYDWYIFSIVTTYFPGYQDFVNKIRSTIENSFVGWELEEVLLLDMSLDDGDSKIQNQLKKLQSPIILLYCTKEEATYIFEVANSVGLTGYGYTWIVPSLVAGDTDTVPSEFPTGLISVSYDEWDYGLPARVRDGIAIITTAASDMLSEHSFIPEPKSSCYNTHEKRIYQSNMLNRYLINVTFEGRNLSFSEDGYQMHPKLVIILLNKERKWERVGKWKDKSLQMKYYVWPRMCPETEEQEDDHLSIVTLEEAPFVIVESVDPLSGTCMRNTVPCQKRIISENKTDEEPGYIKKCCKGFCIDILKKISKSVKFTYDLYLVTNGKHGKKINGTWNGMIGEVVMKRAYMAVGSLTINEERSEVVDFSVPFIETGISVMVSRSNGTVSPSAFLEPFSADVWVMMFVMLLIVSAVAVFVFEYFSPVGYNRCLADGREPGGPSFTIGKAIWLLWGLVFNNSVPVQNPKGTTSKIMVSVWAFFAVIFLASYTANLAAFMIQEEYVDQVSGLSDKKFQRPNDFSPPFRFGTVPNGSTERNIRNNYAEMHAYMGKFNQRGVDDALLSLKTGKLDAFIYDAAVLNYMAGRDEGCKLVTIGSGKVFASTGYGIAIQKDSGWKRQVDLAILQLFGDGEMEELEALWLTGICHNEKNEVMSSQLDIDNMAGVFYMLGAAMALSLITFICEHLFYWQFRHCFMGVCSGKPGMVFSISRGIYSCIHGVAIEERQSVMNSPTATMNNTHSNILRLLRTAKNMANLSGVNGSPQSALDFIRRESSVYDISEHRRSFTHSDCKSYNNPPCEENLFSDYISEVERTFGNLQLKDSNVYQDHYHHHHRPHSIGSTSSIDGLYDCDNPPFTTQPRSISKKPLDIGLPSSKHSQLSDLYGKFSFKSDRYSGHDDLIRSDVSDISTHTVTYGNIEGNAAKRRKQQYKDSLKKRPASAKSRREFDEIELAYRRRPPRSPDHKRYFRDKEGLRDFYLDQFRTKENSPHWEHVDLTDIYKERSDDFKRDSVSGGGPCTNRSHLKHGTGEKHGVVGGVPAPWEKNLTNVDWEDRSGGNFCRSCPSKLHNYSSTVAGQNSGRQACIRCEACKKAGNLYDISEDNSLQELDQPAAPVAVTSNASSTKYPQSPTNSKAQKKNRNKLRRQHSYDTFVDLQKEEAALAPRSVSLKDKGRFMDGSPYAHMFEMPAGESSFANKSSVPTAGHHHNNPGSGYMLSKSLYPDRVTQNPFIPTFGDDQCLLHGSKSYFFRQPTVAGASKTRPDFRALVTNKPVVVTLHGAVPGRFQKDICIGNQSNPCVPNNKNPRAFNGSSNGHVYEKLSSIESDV

Ki [2] [µM] | receptor occupancy at 3 mg/kg ([1]; 3 mg/Kg i.v. dose, CD-1 mice, forebrains harvested 15 minutes post-dosing) [%] | receptor occupancy at 3 mg/kg ([1]; 3 mg/Kg i.v., mice of the forced swim test) [%] | concentration at 15 min ([3]; brain homogenate, read-out: drug levels in the homogonized brain tissue) [µM] | concentration at 15 min ([3]; plasma, read-out: Drug levels in the blood plasma) [µM] | concentration at 21 min ([3]; brain, read-out: Drug levels in the brain) [µM] | concentration at 21 min ([3]; plasma, read-out: Drug levels in the plasma) [µM] | Structure (SMILES) | occupancy of brain-resident NR2B-subtype receptors (in words) ([1]; animals after dosing) | IC50 [4] [µM] | immobility time [5]
 |  |  |  |  |  |  | O=C1C(N2CCN(c3ncc(O)cn3)CC2)CCN1c1ccc(Cl)c(F)c1 (racemic) [Example 1, 1-(4-chloro-3-fluorophenyl)-3-(4-(5-hydroxypyrimidin-2-yl)piperazin-1-yl)pyrrolidin-2-one] | occupies brain-resident NR2B-subtype receptors |  | 
0.004 | 86 | 67 | 1.34 | 1.02 | 0.41 | 0.314 | Cc1ccc(N2CCC(N3CCN(c4ccc(O)cn4)CC3)C2=O)cc1F (single isomer, unassigned) [Example 14 P1, 1-(3-fluoro-4-methylphenyl)-3-(4-(5-hydroxypyridin-2-yl)piperazin-1-yl)pyrrolidin-2-one] |  | 8.9 | statistically significant decrease
